Experimental data as given in a melting point compilation (Tetko et al.; mined from patent text by program, amines drawn as free bases though some values may be those of a salt).

Row | SMILES | melting point
1 | CCCCCCCSc1ccc(-c2ccc(C#N)cc2)cc1 | 64.4 °C
2 | N#Cc1cc(C2CCCCC2)c(C(=O)O)cn1 | 225 to 230 °C
3 | NCCOc1ccc(CC2SC(=O)NC2=O)cc1 (stereo not given) | 175 to 176 °C
4 | O=c1c2c(F)cccc2nc2sccn12 | 205 to 207 °C
5 | CCOP(=O)(CC(Nc1cccnc1)c1cc(OC)c(OC)c(OC)c1)OCC (stereo not given) | 104 to 106 °C
6 | C#Cc1cc(Nc2ncnc3cnc(F)cc23)ccc1Cl | 218 to 222 °C
7 | O=S1(=O)CCCc2[nH]c3ccccc3c2CC1 | 207 to 208 °C
8 | O=C1CC=C2c3ccc(Cl)cc3CCC2N1 (stereo not given) | 241 to 243 °C
9 | CN1Cc2c(C=O)ncn2-c2ccccc2C1=O | 202 to 203 °C
10 | Cc1ccc(=O)n(C2c3cc(C#N)ccc3OC(C)(C)C2O)n1 (stereo not given) | > 257 °C
11 | COC(=O)CC(NC(=O)C1CCCCC1)C(C)=O (stereo not given) | 87 to 88 °C
12 | COc1ccc2c(c1)Sc1cc(OC(C)=O)c(OC)cc1N2 | 172 to 174 °C
13 | N#Cc1cnn2c1NCC=C2c1cc(Cl)ccc1Cl | 222 to 223 °C
14 | C=C(C)[C@H]1CC[C@@](C)(O)[C@H](NC23CC4CC(CC(C4)C2)C3)C1 | 94 to 96 °C
15 | CCOP(=O)(CCC1(C)NC(=O)NC1=O)OCC (stereo not given) | 100 to 103 °C
16 | C#CC(C)(O)C1CCC2C3CC=C4CC(OC)CCC4(C)C3CCC21C (stereo not given) | 175 to 176 °C
17 | CN(C)C=CC(=O)c1ccc(Cl)c(S(=O)(=O)N=CN(C)C)c1 | 204 to 206 °C
18 | CCc1cc(CNc2nc3ccccc3o2)c(=S)[nH]c1C | 238 to 240 °C
19 | COCc1cc(-c2csc(N)n2)on1 | 137 to 138 °C
20 | N#Cc1cc(F)c(-c2ncnc(C(F)F)c2Cl)cc1[N+](=O)[O-] | 100 to 102 °C
21 | Oc1c(C2CCCC2)cc(C2CCCC2)cc1C1CCCC1 | 104 °C
22 | CCCCCCCCN1CC=C(c2c[nH]c(-c3ccc(F)cc3)c2-c2ccncc2)CC1 | 173 to 175 °C
23 | CCOC(=O)c1cn(-c2ncnn2C)c2nc(Cl)c(F)cc2c1=O | 256 to 263 °C
24 | Cc1ccccc1CN(O)C(=O)C(C)(C)CCl | 112 to 113 °C

Row | SMILES | melting point
25 | CCOc1ccc2c(c1)nc1n2CC(c2ccccn2)S1=O (stereo not given) | 145 to 147 °C
26 | COc1ccc2[nH]cc(CC#N)c2c1Cl | 138 to 139 °C
27 | CN1CCN(c2nc3cccccc-3n2)CC1 | 93 to 95 °C
28 | COc1cc(C(=O)C=Cc2ccncc2)cc(OC)c1OC | 127 to 129 °C
29 | O=c1[nH]c2ccccc2cc1Br | 263 to 265 °C
30 | Cc1nc(N2CCCC2)ccc1N1CCCn2c1nc1c(Cl)ccc(C(OC(F)F)C(F)(F)F)c12 (stereo not given) | 233 to 236 °C
31 | COc1ccc(-c2nc3cc(Cl)c(Cl)cc3[nH]2)cc1[N+](=O)[O-] | 250 °C
32 | C#CCc1c(Cl)nc(N)nc1Cl | 211 to 212 °C
33 | COc1nc(C)cnc1N(C(=O)OCC(C)C)S(=O)(=O)c1cccnc1Cl | 99 to 101 °C
34 | CCOC(=O)c1ncn2c1CN(C)C(=S)c1cc(F)ccc1-2 | 157 to 159 °C
35 | COC(c1sc2ccc(Cl)cc2c1Cl)C(C)NC(=O)c1cn(C)nc1C(F)F (stereo not given) | 128 to 132 °C
36 | Cc1ccc(-n2ccc3c(OCC(C)(C)C)nn(C)c(=O)c32)c(C)c1 | 146 to 147 °C
37 | COP(=S)(NNC(C)(C)C)OC | 51 to 54 °C
38 | CN1CCN(C2=NC(=O)C(=Cc3cccc(-c4ccc(O)c(C56CC7CC(CC(C7)C5)C6)c4)c3)S2)CC1 | 291 to 294 °C
39 | Cc1cc(OCCN2CCCCC2)ccc1NC(=O)NC1C2CC3CC(C2)CC1C3 (stereo not given) | 196 °C
40 | CCSC(=O)N(C=C(C#N)C#N)c1cccc(Cl)c1 | 68 °C
41 | CCC(CC)Nc1cc(C(=O)O)ccc1N1C(=O)CCC1(CO)CO | 220 to 221 °C
42 | O=C1CCC(c2ccc(Cl)cc2)CN1CNC(=S)NCN1CC(c2ccc(Cl)cc2)CCC1=O (stereo not given) | 212 to 213 °C
43 | COc1ccc(-c2cc(N3CCN(C(=O)c4cc(S(N)(=O)=O)c(Cl)cc4Cl)CC3)nc(C)n2)cc1OC | 150 to 160 °C
44 | C(#Cc1ccccc1)CCN1CCC(c2ccccc2)CC1 | 65 to 66 °C
45 | C=CCC(=O)NCCN1CCOc2ccc(OC)cc21 | 80 to 81 °C
46 | CCOC(=O)/C=C/c1ccccc1C#N | 60 to 62 °C
47 | CCCCCCCC1OC1CO (stereo not given) | 50 to 51 °C
48 | CC1CC(=O)NN=C1c1ccc(-c2ccc(=O)[nH]n2)cc1 (stereo not given) | > 250 °C

Continued, values first:

Row | melting point | SMILES
49 | 115 to 116 °C | Cc1cc(NC(=O)NN(c2ccccc2)c2cccc(C#N)c2)ccc1N1CCOCC1
50 | 157 to 158 °C | O=c1cc(-c2cc3ccccc3[nH]2)oc2ccccc12
51 | 277 to 279 °C | NS(=O)(=O)c1ccc(-c2[nH]c3ccccc3c2-c2ccc(Br)cc2)cc1
52 | 152 to 153 °C | COCCOCc1c(C=O)sc2c(=O)c(C(=O)NCc3ccc(Cl)cc3)cn(C)c12
53 | 75 to 77 °C | CCCCCOC(=O)CNC(=O)c1nc(Cl)c2ccc(OC(C)C)cc2c1O
54 | 198 °C | O=C(N=c1sc2cc(C(F)(F)F)ccc2n1CCO)C(F)(F)F
55 | 208 to 212 °C | O=C(O)C1=Cc2cc(S(=O)(=O)Cl)ccc2OC1C(F)(F)F (stereo not given)
56 | 186 to 188 °C | O=C1c2ccccc2C(=O)N1CCS(=O)(=O)c1ccccc1
57 | 96 to 98 °C | COC(=O)C(C)(C)OCc1cc2cc(C(F)(F)F)ccc2n1S(=O)(=O)c1ccc2c(c1)OCCN2C
58 | 139 to 141 °C | CC(C)[C@H](NC(=O)OCc1ccccc1)C(=O)NCC(=O)OC(C)(C)C
59 | 190 to 192 °C | CCCOc1ccccc1-c1ccc2c(c1)C=C(C(=O)Nc1ccc(CN(C)C3CCOCC3)cc1)CCS2(=O)=O
60 | 236 °C | CCCOc1cc(-c2cc3c(=O)[nH]c(C)nc3cc2C(C)C)ccc1Cl
61 | 123 °C | COc1ccc(C(Cc2ccc(NC(=O)OC(C)(C)C)cc2)c2ccccc2)cc1OC1CCCC1 (stereo not given)
62 | 324 °C | CN(C)c1ccc(C(=O)NN=C2C(=O)Nc3ccc(I)cc32)cc1
63 | 124 °C | CCC(=O)Oc1cccc2c1C(=O)c1c(OC(=O)CC)cccc1C2C(=O)CC(C)C
64 | 86.5 to 88.2 °C | C=C(C)c1nn(-c2c(Cl)cc(C(F)(F)F)cc2Cl)cc1C1CC1(Br)Br (stereo not given)
65 | 172 °C | COCCNC(=O)COC1c2ccccc2C(=O)N1c1ccc2ccc(OC)nc2n1 (stereo not given)
66 | 201 to 203 °C | CCOC(=O)C1C=Nc2c(c(F)cc3cc(C(=O)N(C)Cc4ccccc4)cnc23)C1=O (stereo not given)
67 | 174 to 176 °C | NC1(c2ccccc2Cl)C(=O)Nc2ccc(Cl)cc21 (stereo not given)
68 | 130 °C | COc1ccc(CN(C)CCc2ccc(NC(=O)c3cccc(C(=O)c4ccccc4)c3)cc2)cc1OC
69 | 194 to 195 °C | Cc1c(Cc2cccc(C(F)(F)F)c2)oc2c(-c3cccc(C(=O)NCC(N)=O)c3)cccc12
70 | 131 to 133 °C | O=c1oc(-c2ccccc2)cc(O)c1SCc1cccc(Oc2ccccc2)c1
71 | 157 to 159 °C | O=C(Nc1ccc(OCc2ccncc2)c2ccccc12)c1cc(F)cc(N2CCOCC2)c1
72 | 150 to 151 °C | Cc1c(C)c2c(c(Br)c1NC(=O)CC(C)(C)C)C(c1ccc(C(C)C)cc1)CO2 (stereo not given)
73 | 153 to 155 °C | Cc1c(C#N)sc2nc(CCc3ccccc3)nc(NC3CCC3)c12
74 | 195 to 198 °C | O=C1Nc2ccccc2C(c2ccccc2)N1C1CCN(Cc2cccc(OC(F)(F)F)c2)CC1 (single isomer, unassigned; (+))

Row | melting point | SMILES
75 | 271 °C | COc1ccc(C(=O)C2=C(O)C(=O)N(c3nnc(C(F)(F)F)s3)C2c2ccc(C(C)(C)C)cc2)cc1 (stereo not given)
76 | 105 to 106 °C | COCCc1nnc(NC(=O)C2c3ccccc3Oc3ccccc32)o1
77 | 170 °C | Cc1ccc(-c2nc3ccccc3s2)nc1
78 | 112 to 113 °C | COC(=O)c1cc2cc(N)ccc2o1
79 | 104 to 106 °C | COC(=O)C(=O)CC(=O)c1ccc(Cc2ccc(Cl)c(Cl)c2)cc1
80 | 125 to 132 °C | Cc1onc(NS(=O)(=O)c2ccccc2-c2ccc(-c3ncccn3)cc2CN2CCC(C)(C)C2=O)c1C
81 | 219 to 223 °C | CCCN1C(=O)CC(C)(C)c2cc(C)c(-c3cc(C=O)ccc3OC(F)(F)F)cc21
82 | 60 °C | CC(Cl)c1ccc(C(=O)c2cccs2)cc1 (stereo not given)
83 | 125 to 126 °C | CCC(O)(c1ccc(O)cc1)c1ccc(F)cc1 (stereo not given)
84 | 194 to 195 °C | CC(=O)NS(=O)(=O)c1ccc(C2=C(c3ccccc3)C(=O)C(C)(C)O2)cc1Cl
85 | 183 to 184 °C | CC(C)C1=NC(c2ccccc2)=NC(c2ccc(F)cc2)C1=CO (stereo not given)
86 | 186 °C | COCCOc1ccc(/C=C/C(=O)NS(=O)(=O)c2ccc(C(F)(F)F)cc2)c(Oc2ncc(C(F)(F)F)cc2Cl)c1
87 | 155 to 159 °C | COC(=O)c1c[nH]c(C(=O)c2ccc(C)cc2)c1
88 | 183 to 184 °C | O=C1c2ccccc2C(=O)N1CC(=O)N1c2ccccc2N(Cc2ccccc2)C(=O)CC1C=Cc1ccccc1 (stereo not given)
89 | 187 to 190 °C | CCOC(=O)C1(NC=O)Cc2ccccc2NC1=O (stereo not given)
90 | 183 to 184 °C | C/C(=C\c1ccc(C(=O)OCc2ccc([N+](=O)[O-])cc2)cc1)c1ccc2c(c1)C(C)(C)CCC2(C)C
91 | 237 to 238 °C | Cc1c(Cl)ccc(-n2c(-c3ccccc3)cc(=O)c(C)c2-c2ccccc2)c1Cl
92 | > 200 °C | NC(=O)c1ccc(-c2cnc3c(c2)N(Cc2ccccc2)C(=O)CN3)cc1
93 | 160 to 162 °C | O=C(Cc1ccccc1)N[C@@H]1C(=O)N[C@@H]1SCC(=O)c1ccccc1
94 | 173 to 175 °C | CNc1cc(NS(=O)(=O)c2ccc(N)cc2)cc(C)n1
95 | 80 to 84 °C | COc1ccccc1C(=O)CC(=O)c1ccccc1O
96 | 154 to 157 °C | Cc1cccc(C2SC3(CCN(C(=O)Oc4ccccc4)CC3)c3ccccc32)c1 (stereo not given)
97 | 280 °C | O=C(Nc1cccc(S(=O)(=O)N2CCCC2)c1)c1cnn2c(C(F)(F)F)cc(-c3ccc(Cl)c(Cl)c3)nc12
98 | 198 to 199 °C | COc1cc2c(cc1O)CCN(C(=O)c1ccc(C#N)cc1)C2=O
99 | 129 to 130 °C | COc1ccc2c(c1)Cc1cc(F)ccc1C(=O)C2
100 | 225 °C | CC(=O)c1ccc2[nH]c(C(=O)c3ccc(Cl)cc3)c(CC(=O)O)c2c1
